Laboratory results: ChEMBL document CHEMBL2401644, “Synthesis and biological evaluation of new chlorin derivatives as potential photosensitizers for photodynamic therapy” (Bioorg Med Chem, 2013)
Blank lines part the entries; values can stand above or below the compound they belong to. Activity calls are given as the source filed them. The calls are words filed in the database; no cut-off is given here.

Tests used:
[1] = Solubility of the compound in water; format: physicochemical
Mus musculus [2] = experiment: Biodistribution in tumor of BALB/c mouse allografted with mouse C26 cells at 10 mg/kg, iv after 1 to 24 hrs; format: ADME, organism-based, Neoplasm; set-up: dose 10 mg/kg, route intravenous; settings: in vivo
Serum [3] = experiment: Biodistribution in serum of BALB/c mouse allografted with mouse C26 cells at 10 mg/kg, iv after 24 hrs; format: ADME, organism-based; set-up: dose 10 mg/kg, route intravenous; settings: in vivo
Zone of skin [4] = experiment: Biodistribution in skin of BALB/c mouse allografted with mouse C26 cells at 10 mg/kg, iv after 24 hrs; format: ADME, organism-based; set-up: dose 10 mg/kg, route intravenous; settings: in vivo
Brain [5] = experiment: Biodistribution in brain of BALB/c mouse allografted with mouse C26 cells at 10 mg/kg, iv after 24 hrs; format: ADME, organism-based; set-up: dose 10 mg/kg, route intravenous; settings: in vivo
Muscle tissue [6] = experiment: Biodistribution in muscle of BALB/c mouse allografted with mouse C26 cells at 10 mg/kg, iv after 24 hrs; format: ADME, organism-based; set-up: dose 10 mg/kg, route intravenous; settings: in vivo
Spleen [7] = experiment: Biodistribution in spleen of BALB/c mouse allografted with mouse C26 cells at 10 mg/kg, iv after 24 hrs; format: ADME, organism-based; set-up: dose 10 mg/kg, route intravenous; settings: in vivo
Lung [8] = experiment: Biodistribution in lung of BALB/c mouse allografted with mouse C26 cells at 10 mg/kg, iv after 24 hrs; format: ADME, organism-based; set-up: dose 10 mg/kg, route intravenous; settings: in vivo
Kidney [9] = experiment: Biodistribution in kidney of BALB/c mouse allografted with mouse C26 cells at 10 mg/kg, iv after 24 hrs; format: ADME, organism-based; set-up: dose 10 mg/kg, route intravenous; settings: in vivo
Liver [10] = experiment: Biodistribution in liver of BALB/c mouse allografted with mouse C26 cells at 10 mg/kg, iv after 24 hrs; format: ADME, organism-based; set-up: dose 10 mg/kg, route intravenous; settings: in vivo
Zone of skin [11] = experiment: Biodistribution in skin of BALB/c mouse allografted with mouse C26 cells at 10 mg/kg, iv after 3 hrs; format: ADME, organism-based; set-up: dose 10 mg/kg, route intravenous; settings: in vivo
Muscle tissue [12] = experiment: Biodistribution in muscle of BALB/c mouse allografted with mouse C26 cells at 10 mg/kg, iv after 3 hrs; format: ADME, organism-based; set-up: dose 10 mg/kg, route intravenous; settings: in vivo
Brain [13] = experiment: Biodistribution in brain of BALB/c mouse allografted with mouse C26 cells at 10 mg/kg, iv after 3 hrs; format: ADME, organism-based; set-up: dose 10 mg/kg, route intravenous; settings: in vivo
Lung [14] = experiment: Biodistribution in lung of BALB/c mouse allografted with mouse C26 cells at 10 mg/kg, iv after 3 hrs; format: ADME, organism-based; set-up: dose 10 mg/kg, route intravenous; settings: in vivo
Spleen [15] = experiment: Biodistribution in spleen of BALB/c mouse allografted with mouse C26 cells at 10 mg/kg, iv after 3 hrs; format: ADME, organism-based; set-up: dose 10 mg/kg, route intravenous; settings: in vivo
Kidney [16] = experiment: Biodistribution in kidney of BALB/c mouse allografted with mouse C26 cells at 10 mg/kg, iv after 3 hrs; format: ADME, organism-based; set-up: dose 10 mg/kg, route intravenous; settings: in vivo
Mus musculus [17] = experiment: Toxicity against BALB/c mouse allografted with mouse C26 cells assessed as cellular damage in kidney at 10 mg/kg, iv administered for 3 hrs followed by irradiation measured after 3 days by hematoxylin and eosin staining; format: organism-based; set-up: dose 10 mg/kg, route intravenous; settings: in vivo, 72 h
Mus musculus [18] = experiment: Toxicity against BALB/c mouse allografted with mouse C26 cells assessed as cellular damage in liver at 10 mg/kg, iv administered for 3 hrs followed by irradiation measured after 3 days by hematoxylin and eosin staining; format: organism-based; set-up: dose 10 mg/kg, route intravenous; settings: in vivo, 72 h
C26 [19] = experiment: Antitumor activity against mouse C26 cells allografted in BALB/c mouse assessed as sparsely distributed cell nuclei of tumor cells at 10 mg/kg, iv administered for 3 hrs followed by light irradiation measured after 3 days by hematoxylin and eosin staining relative to control; format: functional, organism-based; set-up: dose 10 mg/kg
C26 [20] = experiment: Antitumor activity against mouse C26 cells allografted in BALB/c mouse assessed as poor nuclei staining of tumor cells at 10 mg/kg, iv administered for 3 hrs followed by light irradiation measured after 3 days by hematoxylin and eosin staining relative to control; format: functional, organism-based; set-up: dose 10 mg/kg
C26 [21] = experiment: Antitumor activity against mouse C26 cells allografted in BALB/c mouse assessed as reduction in nuclei number of tumor cells at 10 mg/kg, iv administered for 3 hrs followed by light irradiation measured after 3 days by hematoxylin and eosin staining relative to control; format: functional, organism-based; set-up: dose 10 mg/kg
C26 [22] = experiment: Antitumor activity against mouse C26 cells allografted in BALB/c mouse assessed as reduction in nuclei size of tumor cells at 10 mg/kg, iv administered for 3 hrs followed by light irradiation measured after 3 days by hematoxylin and eosin staining relative to control; format: functional, organism-based; set-up: dose 10 mg/kg
C26 [23] = experiment: Antitumor activity against mouse C26 cells allografted in BALB/c mouse at 10 mg/kg, iv followed by light irradiation measured after 3 to 7 days; format: functional, organism-based; set-up: dose 10 mg/kg
[24] = Biodistribution in serum of BALB/c mouse allografted with mouse C26 cells at 10 mg/kg, iv after 6 hrs; format: ADME, organism-based; set-up: dose 10 mg/kg, route intravenous; settings: read-out: Drug uptake
[25] = Biodistribution in serum of BALB/c mouse allografted with mouse C26 cells at 10 mg/kg, iv after 3 hrs; format: ADME, organism-based; set-up: dose 10 mg/kg, route intravenous; settings: read-out: Drug uptake
[26] = Biodistribution in serum of BALB/c mouse allografted with mouse C26 cells at 10 mg/kg, iv after 1 hr; format: ADME, organism-based; set-up: dose 10 mg/kg, route intravenous; settings: read-out: Drug uptake
[27] = Biodistribution in tumor of BALB/c mouse allografted with mouse C26 cells at 10 mg/kg, iv after 3 hrs; format: ADME, organism-based, Neoplasm; set-up: dose 10 mg/kg, route intravenous; settings: read-out: Drug uptake
Liver [28] = experiment: Biodistribution in liver of BALB/c mouse allografted with mouse C26 cells at 10 mg/kg, iv after 3 hrs; format: ADME, organism-based; set-up: dose 10 mg/kg, route intravenous; settings: in vivo
Serum [29] = experiment: Biodistribution in serum of BALB/c mouse allografted with mouse C26 cells at 10 mg/kg, iv after 1 to 24 hrs; format: ADME, organism-based; set-up: dose 10 mg/kg, route intravenous; settings: in vivo
Liver [30] = experiment: Biodistribution in liver of BALB/c mouse allografted with mouse C26 cells at 10 mg/kg, iv after 1 to 24 hrs; format: ADME, organism-based; set-up: dose 10 mg/kg, route intravenous; settings: in vivo

solubility [1]: 10000 µg/mL
Drug uptake (Mus musculus [2]): Not Active
SMILES: C=Cc1c(C)c2cc3nc(cc4[nH]c(cc5nc(cc1[nH]2)C(C)(O)/C5=C\CO)c(C)c4CCC(=O)[O-])C(CCC(=O)[O-])=C3C.[Na+].[Na+] (stereo unspecified)

solubility [1]: 100000 µg/mL
Drug uptake (Serum [3]): Not Active
Drug uptake (Zone of skin [4]): Not Active
Drug uptake (Brain [5]): Not Active
Drug uptake (Muscle tissue [6]): Not Active
Drug uptake (Spleen [7]): Not Active
Drug uptake (Lung [8]): Not Active
Drug uptake (Kidney [9]): Not Active
Drug uptake (Liver [10]): Not Active
Drug uptake (Zone of skin [11]): Active
Drug uptake (Muscle tissue [12]): Active
Drug uptake (Brain [13]): Active
Drug uptake (Lung [14]): Active
Drug uptake (Spleen [15]): Active
Drug uptake (Kidney [16]): Active
concentration at 6 h [24]: 3400 ng/g
concentration at 3 h [25]: 8400 ng/g
concentration at 1 h [26]: 17200 ng/g
concentration at 3 h [27]: 690 ng/g
Drug uptake (Mus musculus [2]): Active
Drug uptake (Liver [28]): Active
SMILES: C=Cc1c(C)c2cc3nc(cc4[nH]c(cc5nc(cc1[nH]2)C(C)(O)/C5=C\C=N/OCC)c(C)c4CCC(=O)N(CC(=O)[O-])CC(=O)[O-])C(CCC(=O)N(CC(=O)[O-])CC(=O)[O-])=C3C.[Na+].[Na+].[Na+].[Na+] (stereo unspecified)
Activity (Mus musculus [17]): Non-toxic
Activity (Mus musculus [18]): Non-toxic
Activity (C26 [19]): Active
Activity (C26 [20]): Active
Activity (C26 [21]): Active
Activity (C26 [22]): Active
TGI (C26 [23]): Active

solubility [1]: 10000 µg/mL
concentration at 3 h [25]: 5900 ng/g
concentration at 1 h [26]: 24200 ng/g
Drug uptake (Serum [29]): Active
Drug uptake (Liver [30]): Active
Drug uptake (Mus musculus [2]): Active
SMILES: C=Cc1c(C)c2cc3nc(cc4[nH]c(cc5nc(cc1[nH]2)C(C)(O)/C5=C\C=N/OCC)c(C)c4CCC(=O)[O-])C(CCC(=O)[O-])=C3C.[Na+].[Na+] (stereo unspecified)
